This is an account of results in patent US20110152166A1, “METHOD OF MODULATION OF PROTEIN PHOSPHORYLATION-DEPENDENT CONFORMATIONAL TRANSITIONS WITH LOW MOLECULAR WEIGHT COMPOUNDS” (priority 2006, published 2011).

Broadly, the AC50 is the concentration giving half of the maximal activity seen. A high value points to weaker potency.

Holding throughout (test): PDK1 activity assay with T308tide
Common to all, as to format: biochemical

One experiment has as its target T1, GST-PDK1 [Leu155Ser] (Homo sapiens, UniProt O15530, L155S).
T1 construct: different protein constructs, comprising the full length protein or the catalytic domain alone; made in house; host or cells: HEK293 cells (pEBG-2T-PDK1 mutant)
T1 sequence (O15530 1-556 L155S): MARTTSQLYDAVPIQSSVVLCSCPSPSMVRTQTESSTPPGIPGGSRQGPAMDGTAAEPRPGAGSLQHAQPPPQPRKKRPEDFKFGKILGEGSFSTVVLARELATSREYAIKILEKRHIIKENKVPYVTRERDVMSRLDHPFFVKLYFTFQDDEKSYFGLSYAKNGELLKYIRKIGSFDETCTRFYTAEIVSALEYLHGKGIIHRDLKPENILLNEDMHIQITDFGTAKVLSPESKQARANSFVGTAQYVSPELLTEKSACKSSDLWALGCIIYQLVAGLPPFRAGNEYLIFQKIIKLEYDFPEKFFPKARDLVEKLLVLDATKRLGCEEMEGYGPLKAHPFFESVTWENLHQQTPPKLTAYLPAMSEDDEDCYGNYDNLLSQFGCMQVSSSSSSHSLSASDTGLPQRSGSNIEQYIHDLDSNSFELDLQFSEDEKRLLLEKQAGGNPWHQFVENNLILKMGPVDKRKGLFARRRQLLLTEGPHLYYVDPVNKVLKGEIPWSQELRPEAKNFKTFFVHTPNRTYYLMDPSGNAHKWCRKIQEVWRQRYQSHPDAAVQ
Conditions: for AC50: GST-PDK1 [Leu155Ser].

The target in another experiment is T2, GST-PDK1 [Phe157Met] (Homo sapiens, UniProt O15530, F157M).
T2 construct: different protein constructs, comprising the full length protein or the catalytic domain alone; made in house; host or cells: HEK293 cells (pEBG-2T-PDK1 mutant)
T2 sequence (O15530 1-556 F157M): T1 sequence (O15530 1-556 L155S) with S155L, F157M

In the next experiment the target is T3, GST-PDK1 [Val124Ala] (Homo sapiens, UniProt O15530, V124A).
T3 construct: different protein constructs, comprising the full length protein or the catalytic domain alone; made in house; host or cells: HEK293 cells (pEBG-2T-PDK1 mutant)
T3 sequence (O15530 1-556 V124A): T1 sequence (O15530 1-556 L155S) with V124A, S155L

Where a chain is given by its changes, count along the chain named. Ends that are not written are not given here.

Turning to “REPRILSEEEQEMFRDFDYIADWC [PIFtide, reference compound]”, the AC50 entry at GST-PDK1 [Leu155Ser] was “No Effect”; at GST-PDK1 [Phe157Met] it was 1.52 ± 0.59 µM; on GST-PDK1 [Val124Ala], 0.21 ± 0.03 µM. In addition, the figures for the Max. activity on GST-PDK1 [Phe157Met] and at GST-PDK1 [Val124Ala] were 1.7 ± 0.24 U/mg and 1.91 ± 0.06 U/mg, respectively.

Take `O=C(O)CSC(CC(=O)c1ccc(Cl)cc1)c1ccccc1` (centres unmarked) [Compound 1]: the AC50 entry at GST-PDK1 [Leu155Ser] is “No Effect”; at GST-PDK1 [Phe157Met], 140 ± 100 µM; at GST-PDK1 [Val124Ala] it was more than 200 µM. For the same molecule, the “activation of PDK1 mutant (in words)” value on GST-PDK1 [Leu155Ser] (Leu155 replaced with Ser, constitutively active) is on record as “could not be further activated”. Besides, the figures for the Max. activity on GST-PDK1 [Phe157Met] and on GST-PDK1 [Val124Ala] were 0.9 ± 0.3 U/mg and 2.6 ± 0.5 U/mg, respectively.
